Data set [1] in a line: In vitro metabolic stability in human plasma. The note with it: 37°C, 72 ± 2 h, n = 4. The format is in vitro ADME. The method, then:
Metabolic stability in vitro was determined through a procedure published by Linder et al. that was slightly modified ([16]). Immediately after labeling, 200 μL of human plasma were added and the mixture was incubated at 37°C for 72 ± 2 h. Proteins were precipitated by treatment with ice-cold EtOH (150 μL) and ice-cold MeCN (450 μL), followed by centrifugation (13,000 rpm, 20 min). The supernatants were decanted and further centrifuged (13,000 rpm, 10 min) using a Costar Spin-X (Corning) centrifuge tube filter (0.45 μm). The filtrated plasma samples were analyzed using radio–RP-HPLC.
(§1) FIGURE 2. Preclinical data of ^nat/177Lu-RM2 (red), ^nat/177Lu-NeoBOMB1 (gray), ^nat/177Lu-AMTG (green), and ^nat/177Lu-AMTG2 (blue). (A) Affinity data on PC-3 and T-47D cells (1.5 × 10^5 cells/mL/well) using 3-^125I-D-Tyr^6-MJ9 (0.2 nM/well) as radiolabeled reference (2 h, room temperature, Hanks’ balanced salt solution plus 1% bovine serum albumin [v/v]). (B) GRPR-mediated internalization (0.25 pmol/well) on PC-3 cells as percentage of applied activity (incubation at 37°C for 1 h, Dulbecco modified Eagle medium/F-12 plus 5% bovine serum albumin [v/v], 1.5 × 10^5 cells/mL/well). Data were corrected for nonspecific binding (10^−3 M ^natLu-RM2). (C) Lipophilicity at pH 7.4 (logD7.4). (D) Metabolic stability in vitro in human plasma (left) (37°C, 72 ± 2 h; n = 4), and metabolic stability in vivo in murine plasma (middle) and murine urine (right) at 30 min after injection (n = 3). Data are expressed as mean ± SD.

Data set [2] in a line: In vivo metabolic stability in murine plasma and urine. On the set-up: species or system CB17-SCID mice. The settings on record: 30 min after injection, n = 3. The method, then:
Approximately 30–40 MBq (1 nmol, 150 μL) of the ^177Lu-labeled compounds were injected into the tail vein of anesthetized CB17-SCID mice (n = 3). After euthanasia at 30 min after injection, blood and urine samples were collected. Blood proteins were precipitated by treatment with ice-cold MeCN (v/v = 1/1), followed by centrifugation (13,000 rpm, 20 min). The supernatants were decanted and further centrifuged (13,000 rpm, 10 min) using a Costar Spin-X centrifuge tube filter (0.45 μm). The filtrated plasma samples and the urine samples were analyzed using radio–RP-HPLC.
as §1

Data set [3] in a line: Biodistribution in PC-3 tumor-bearing CB17-SCID mice. In kind it is in vivo. Here is the method:
A detailed description of tumor inoculation is provided in the supplemental materials. Approximately 2–5 MBq (100 pmol, 150 μL) of the ^177Lu-labeled GRPR ligands were injected into the tail vein of anesthetized (2% isoflurane) PC-3 tumor–bearing mice (biodistribution, n = 4; imaging, n = 1).
For biodistribution studies, organs were removed, weighed, and measured in a γ-counter (Perkin Elmer) after euthanasia at 24 h after injection.
For all competition studies, 3.62 mg/kg (40 nmol) of ^natLu-RM2 (10^−3 M in phosphate-buffered saline) were coadministered.

In data set [4] the target is T1, GRPR (Homo sapiens, UniProt P30550).
T1 construct: endogenous in cells; host or cells: PC-3 cells
T1 sequence (P30550 whole entry): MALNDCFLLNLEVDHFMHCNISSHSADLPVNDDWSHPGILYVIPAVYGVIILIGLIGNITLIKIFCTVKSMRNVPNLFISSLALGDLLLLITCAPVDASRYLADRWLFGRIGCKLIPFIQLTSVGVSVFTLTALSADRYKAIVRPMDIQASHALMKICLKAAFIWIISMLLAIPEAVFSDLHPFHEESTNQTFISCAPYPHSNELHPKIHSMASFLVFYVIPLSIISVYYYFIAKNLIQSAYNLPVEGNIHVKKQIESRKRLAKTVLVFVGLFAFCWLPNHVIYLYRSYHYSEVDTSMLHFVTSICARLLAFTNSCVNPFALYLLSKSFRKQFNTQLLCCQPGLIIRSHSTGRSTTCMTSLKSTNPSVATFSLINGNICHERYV
Nature of the data set: Competitive binding (IC50) on PC-3 cells vs 3-125I-D-Tyr6-MJ9. The settings on record: 2 h, room temperature, 3-125I-D-Tyr6-MJ9 0.2 nM/well, n = 3. Here is the method: Competitive binding studies were performed on both PC-3 and T-47D cells (1.5 × 10^5 cells in 1 mL/well) via incubation at room temperature for 2 h using 3-^125I-D-Tyr^6-MJ9 (0.2 nM/well) as a radiolabeled reference (n = 3). Internalization studies of the ^177Lu-labeled conjugates (1.0 nM/well) were performed on PC-3 cells (1.5 × 10^5 cells in 1 mL/well) at 37°C for 1 h (n = 6). Data were corrected for nonspecific binding (competition by 10^−3 M ^natLu-RM2).
as §1

A short description of data set [5]: Lipophilicity, n-octanol-PBS distribution coefficient (logD7.4). The format is physicochemical. The note with it: n-octanol/PBS pH 7.4. Here is the method: Approximately 1 MBq of the ^177Lu-labeled compound was dissolved in 1 mL of phosphate-buffered saline (pH 7.4) and n-octanol (v/v = 1/1). After stirring for 3 min at room temperature in a vortex mixer and subsequent centrifugation at 9,000 rpm for 5 min (Biofuge 15; Heraeus Sepatech GmbH), 200-μL aliquots of both layers were measured separately in a γ-counter. The experiment was repeated at least 5 times.

The conditions of data set [6]: 30 min after injection; cited from earlier work.
Data set [7] concerns the target T1, GRPR. Details: method as in PMID 19671861, PMID 17262215. The note with it: 1 h in vitro; cited from earlier work.

Like-named read-outs stand apart in the source and are kept apart here.

As to `CC(C)C[C@H](NC(=O)C[C@H](O)[C@H](CC(C)C)NC(=O)[C@H](Cc1c[nH]cn1)NC(=O)CNC(=O)[C@@H](NC(=O)[C@H](C)NC(=O)[C@H](Cc1c[nH]c2ccccc12)NC(=O)[C@H](CCC(N)=O)NC(=O)[C@@H](Cc1ccccc1)NC(=O)CN1CCC(NC(=O)CN2CCN(CC(=O)O)CCN(CC(=O)O)CCN(CC(=O)O)CC2)CC1)C(C)C)C(N)=O` [^177Lu-RM2, metal not drawn, reference compound], the “Intact compound in human plasma in vitro” value in data set [1] was 38.7% ± 9.3%. Also, the “Intact tracer in murine plasma in vivo” value in data set [2] is listed as 11.4% ± 3.7%. Further, in data set [2], the “Intact tracer in murine urine in vivo” value is given as 0.5% ± 0.1%. For the same compound, the tissue uptake at 24 h in data set [3] (CB17-SCID, mouse, adrenal, intravenous, 100 pmol, total radioactivity, 24 h after injection, 100 pmol, n = 4; read-out: Biodistribution, Adrenal) was 0.8 ± 0.16 %ID/g; in data set [3] (CB17-SCID, mouse, blood, intravenous, 100 pmol, total radioactivity, 24 h after injection, 100 pmol, n = 4; read-out: Biodistribution, Blood), 0.012 ± 0.001 %ID/g; in data set [3] (CB17-SCID, mouse, bone, intravenous, 100 pmol, total radioactivity, 24 h after injection, 100 pmol, n = 4; read-out: Biodistribution, Bone), 1.31 ± 0.56 %ID/g; in data set [3] (CB17-SCID, mouse, kidney, intravenous, 100 pmol, total radioactivity, 24 h after injection, 100 pmol, n = 4; read-out: Biodistribution, Kidney), 1.79 ± 0.05 %ID/g; in data set [3] (CB17-SCID, mouse, liver, intravenous, 100 pmol, total radioactivity, 24 h after injection, 100 pmol, n = 4; read-out: Biodistribution, Liver) it was 0.45 ± 0.03 %ID/g; in data set [3] (CB17-SCID, mouse, muscle, intravenous, 100 pmol, total radioactivity, 24 h after injection, 100 pmol, n = 4; read-out: Biodistribution, Muscle) it was 0.011 ± 0.011 %ID/g. For the same compound, the tissue uptake at 24 h in data set [3] (CB17-SCID, mouse, pancreas, intravenous, 100 pmol, total radioactivity, 24 h after injection, 100 pmol, n = 4; read-out: Biodistribution, Pancreas) amounted to 0.43 ± 0.06 %ID/g; in data set [3] (CB17-SCID, mouse, tumor (PC-3), intravenous, 100 pmol, total radioactivity, PC-3 tumor, 24 h after injection, 100 pmol, n = 4; read-out: Biodistribution, Tumor), 8.45 ± 0.19 %ID/g.

In data set [4], `CC(C)C[C@H](NC(=O)C[C@H](O)[C@H](CC(C)C)NC(=O)[C@H](Cc1c[nH]cn1)NC(=O)CNC(=O)[C@@H](NC(=O)[C@H](C)NC(=O)[C@H](Cc1c[nH]c2ccccc12)NC(=O)[C@H](CCC(N)=O)NC(=O)[C@@H](Cc1ccc(O)c(I)c1)NC(=O)CN1CCC(N)CC1)C(C)C)C(N)=O` [cold counterpart of 3-^125I-D-Tyr^6-MJ9] yielded an IC50 of 1.3 ± 0.4 nM.

In the case of `CC(C)CC(CC(C)C)NC(=O)[C@H](Cc1cnc[nH]1)NC(=O)CNC(=O)[C@@H](NC(=O)[C@H](C)NC(=O)[C@H](Cc1c[nH]c2ccccc12)NC(=O)[C@H](CCC(N)=O)NC(=O)[C@@H](Cc1ccccc1)NC(=O)COCC(=O)Nc1ccc(CNC(=O)CN2CCN(CC(=O)O)CCN(CC(=O)O)CCN(CC(=O)O)CC2)cc1)C(C)C` [^177Lu-NeoBOMB1, metal not drawn, reference compound], in data set [5], the pH-dependent lipophilicity (logD) is -0.57 ± 0.03. Moreover, in data set [1], the “Intact compound in human plasma in vitro” value is given as 61.9% ± 2.1%. Further, the “Intact tracer in murine plasma in vivo” value in data set [2] was 75.9% ± 0.6%. Moreover, in data set [2], the “Intact tracer in murine urine in vivo” value is given as 3.9% ± 1.3%. Moreover, the tissue uptake at 24 h is 0.057 ± 0.027 %ID/g in data set [3] (CB17-SCID, mouse, blood, intravenous, total radioactivity; 24 h after injection, 100 pmol, n = 4; read-out: Biodistribution, Blood); 0.1 ± 0.03 %ID/g in data set [3] (CB17-SCID, mouse, heart, intravenous, total radioactivity; 24 h after injection, 100 pmol, n = 4; read-out: Biodistribution, Heart); 0.85 ± 0.05 %ID/g in data set [3] (CB17-SCID, mouse, intestine, intravenous, total radioactivity; 24 h after injection, 100 pmol, n = 4; read-out: Biodistribution, Intestine); 1.9 ± 0.72 %ID/g in data set [3] (CB17-SCID, mouse, kidney, intravenous, total radioactivity; 24 h after injection, 100 pmol, n = 4; read-out: Biodistribution, Kidney); 1.6 ± 0.62 %ID/g in data set [3] (CB17-SCID, mouse, liver, intravenous, total radioactivity; 24 h after injection, 100 pmol, n = 4; read-out: Biodistribution, Liver); 0.43 %ID/g in data set [3] (CB17-SCID, mouse, lung, intravenous, total radioactivity; 24 h after injection, 100 pmol, n = 4; read-out: Biodistribution, Lung). For the same compound, the tissue uptake at 24 h in data set [3] (CB17-SCID, mouse, muscle, intravenous, total radioactivity; 24 h after injection, 100 pmol, n = 4; read-out: Biodistribution, Muscle) is 0.01 ± 0.005 %ID/g; in data set [3] (CB17-SCID, mouse, pancreas, intravenous, total radioactivity; 24 h after injection, 100 pmol, n = 4; read-out: Biodistribution, Pancreas) it was 8.48 ± 0.92 %ID/g; in data set [3] (CB17-SCID, mouse, spleen, intravenous, total radioactivity; 24 h after injection, 100 pmol, n = 4; read-out: Biodistribution, Spleen), 1.94 ± 0.97 %ID/g; in data set [3] (CB17-SCID, mouse, stomach, intravenous, total radioactivity; 24 h after injection, 100 pmol, n = 4; read-out: Biodistribution, Stomach), 1.29 ± 0.12 %ID/g; in data set [3] (CB17-SCID, mouse, tumor (PC-3), intravenous, total radioactivity; PC-3 tumor, 24 h after injection, 100 pmol, n = 4; read-out: Biodistribution, Tumor), 7.23 ± 0.91 %ID/g. In addition, in data set [6], the “Fraction of intact tracer in murine blood” value is reported as 90%.

For “DOTA-4-aminobenzoyl-Gln^7- Trp^8-Ala^9- Val^10- Gly^11- His^12- Leu^13-Met^14-NH2 [AMBA]”, the Internalization rates entry in data set [7] is reported as “more than 25%”.

The record behind these values is paper PMC9454457 (Journal of Nuclear Medicine, 2022).
